Data: patent US7994140B2, “Classes of compounds that interact with GPCRs” (Alchemia Limited, priority 2002, dated 2011)

Experiments:
[1] = biological target: T1, MC4 (Homo sapiens, UniProt P32245); assay: GPCR radioligand binding (RLB) assay, melanocortin MC4, [125I]NDP-αMSH
T1 construct: purchased Perkin Elmer BioSignal; host or cells: HEK 293
Procedure, shortened: (§1)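 Competition binding against radioligand ([125I]NDP-αMSH for MC4, [125I]SST-14 for SST5) on membranes of HEK 293 cells carrying the human receptor; buffer and incubation time optimized per receptor. Filtration through 0.5% PEI-treated glass fiber, washing, then scintillation counting.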

[2] = biological target: T2, SST5 (Homo sapiens, UniProt P35346); assay: GPCR radioligand binding (RLB) assay, somatostatin SST5, [125I]SST-14; conditions: for SST5 inhibition at 10 micromolar: recombinant human receptor membranes (HEK 293)
T2 construct: purchased Perkin Elmer BioSignal; host or cells: HEK 293
Procedure, shortened: as §1

[3] = 10 micromolar compound, recombinant human receptor membranes (HEK 293)
[4] = 10 micromolar, Example Library 4

T2 sequence (P35346 whole entry): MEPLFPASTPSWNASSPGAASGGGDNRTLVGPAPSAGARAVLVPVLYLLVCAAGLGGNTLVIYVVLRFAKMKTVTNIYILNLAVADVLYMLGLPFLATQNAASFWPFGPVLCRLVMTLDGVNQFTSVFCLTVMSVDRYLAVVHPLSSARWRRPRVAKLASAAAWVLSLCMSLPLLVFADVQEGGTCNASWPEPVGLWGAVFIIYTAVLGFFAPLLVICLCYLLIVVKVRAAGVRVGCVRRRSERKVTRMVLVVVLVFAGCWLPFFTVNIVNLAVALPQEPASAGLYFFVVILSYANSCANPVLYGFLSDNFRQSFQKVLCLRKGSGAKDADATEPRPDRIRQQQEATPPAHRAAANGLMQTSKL
T1 sequence (P32245 whole entry): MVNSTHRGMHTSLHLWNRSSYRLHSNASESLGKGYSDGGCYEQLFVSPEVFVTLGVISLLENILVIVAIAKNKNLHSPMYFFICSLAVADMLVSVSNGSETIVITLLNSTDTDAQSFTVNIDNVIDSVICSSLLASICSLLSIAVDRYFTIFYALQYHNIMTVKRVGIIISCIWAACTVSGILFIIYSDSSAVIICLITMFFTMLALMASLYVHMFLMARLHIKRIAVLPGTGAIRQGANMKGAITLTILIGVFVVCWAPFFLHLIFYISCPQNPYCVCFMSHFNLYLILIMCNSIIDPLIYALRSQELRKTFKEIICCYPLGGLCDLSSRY

| Structure (SMILES) | MC4 inhibition at 10 micromolar [1, 3] | SST5 inhibition at 10 micromolar ([2]; 10 micromolar compound) | MC4 inhibition at 10 micromolar [1, 4] | SSTS inhibition at 10 micromolar [2, 4] | SSTS inhibition at 10 micromolar ([2]; 10 micromolar compound, Example Library 8) |
| --- | --- | --- | --- | --- | --- |
| COC1C(O)C(COCc2ccc3ccccc3c2)OC(OCc2ccccc2)C1NC(=O)CNC(=N)N (stereo not drawn) [Compound 80] | + (Indicates inhibition greater than . . . 50%) | + (Indicates inhibition greater than . . . 50%) |  |  |  |
| CSC1OC(COCc2ccc3ccccc3c2)C(O)C(OCc2ccc3ccccc3c2)C1NC(=O)CCNC(=N)N (stereo not drawn) [Compound 212] | + (Indicates inhibition greater than . . . 50%) | + (Indicates inhibition greater than . . . 50%) |  |  |  |
| CSC1OC(COCc2ccc3ccccc3c2)C(O)C(OCc2ccccc2)C1NC(=O)CCN (stereo not drawn) [Compound 139] | + (Indicates inhibition greater than . . . 50%) | + (Indicates inhibition greater than . . . 50%) |  |  |  |
| COCC1OC(OCCc2ccccc2)C(NC(=O)CN)C(OCc2ccc3ccccc3c2)C1O (stereo not drawn) [Compound 280] |  |  | + (Indicates inhibition greater than . . . 50%) | + (Indicates inhibition greater than . . . 50%) |  |
| CSC1OC(COCc2ccccc2)C(O)C(OCc2ccccc2)C1NC(=O)CCN (stereo not drawn) [Compound 121] | + (Indicates inhibition greater than . . . 50%) | + (Indicates inhibition greater than . . . 50%) |  |  |  |
| COCC1OC(OCc2ccc(Cl)cc2)C(NC(=O)CN)C(OCc2ccc(-c3ccccc3)cc2)C1O (stereo not drawn) [Compound 248] |  |  | + (Indicates inhibition greater than . . . 50%) | + (Indicates inhibition greater than . . . 50%) |  |
| COCC1OC(OCc2ccc(Cl)cc2)C(NC(=O)CCCN)C(OCc2ccc3ccccc3c2)C1O (stereo not drawn) [Compound 258] |  |  | + (Indicates inhibition greater than . . . 50%) | + (Indicates inhibition greater than . . . 50%) |  |
| COCC1OC(OCc2ccc(Cl)cc2)C(NC(=O)CCCNC(=N)N)C(OCc2ccccc2)C1O (stereo not drawn) [Compound 241] |  |  | + (Indicates inhibition greater than . . . 50%) | + (Indicates inhibition greater than . . . 50%) |  |
| COCC1OC(OCc2ccccc2)C(NC(=O)CN)C(OCc2ccc(-c3ccccc3)cc2)C1O (stereo not drawn) [Compound 225] |  |  | + (Indicates inhibition greater than . . . 50%) | + (Indicates inhibition greater than . . . 50%) |  |
| COCC1OC(OCc2ccccc2)C(NC(=O)CCNC(=N)N)C(OCc2ccc(Cl)cc2)C1O (stereo not drawn) [Compound 222] |  |  | + (Indicates inhibition greater than . . . 50%) | + (Indicates inhibition greater than . . . 50%) |  |
| COC[C@H]1OC(OCc2ccc3ccccc3c2)[C@H](NC(=O)CCCNC(=N)N)[C@@H](OCc2ccc(Cl)cc2)[C@@H]1O (stereo partly drawn) [Compound 43] | + (Indicates inhibition greater than . . . 50%) | + (Indicates inhibition greater than . . . 50%) |  |  |  |
| CSC1OC(COCc2ccc3ccccc3c2)C(O)C(OCc2ccccc2)C1NC(=O)CCCN (stereo not drawn) [Compound 141] | + (Indicates inhibition greater than . . . 50%) | + (Indicates inhibition greater than . . . 50%) |  |  |  |
| COC[C@H]1OC(OCc2ccc(Cl)cc2)[C@H](NC(=O)CCNC(=N)N)[C@@H](OCc2ccc3ccccc3c2)[C@@H]1O (stereo partly drawn) [Compound 14] | + (Indicates inhibition greater than . . . 50%) | + (Indicates inhibition greater than . . . 50%) |  |  |  |
| COC[C@H]1OC(OCc2ccc3ccccc3c2)[C@H](NC(=O)CNC(=N)N)[C@@H](OCc2ccc(-c3ccccc3)cc2)[C@@H]1O (stereo partly drawn) [Compound 35] | + (Indicates inhibition greater than . . . 50%) | + (Indicates inhibition greater than . . . 50%) |  |  |  |
| CSC1OC(COCc2ccc(-c3ccccc3)cc2)C(O)C(OCc2ccccc2)C1NC(=O)CNC(=N)N (stereo not drawn) [Compound 132] | + (Indicates inhibition greater than . . . 50%) | + (Indicates inhibition greater than . . . 50%) |  |  |  |
| CSC1OC(COCc2ccc(-c3ccccc3)cc2)C(O)C(OCc2ccc(-c3ccccc3)cc2)C1NC(=O)CCNC(=N)N (stereo not drawn) [Compound 182] | + (Indicates inhibition greater than . . . 50%) | + (Indicates inhibition greater than . . . 50%) |  |  |  |
| COC[C@H]1OC(OCc2ccc(-c3ccccc3)cc2)[C@H](NC(=O)CCCN)[C@@H](OCc2ccc(Cl)cc2)[C@@H]1O (stereo partly drawn) [Compound 33] | + (Indicates inhibition greater than . . . 50%) | + (Indicates inhibition greater than . . . 50%) |  |  |  |
| COCC1OC(OCc2ccc(Cl)cc2)C(NC(=O)CN)C(OCc2ccc3ccccc3c2)C1O (stereo not drawn) [Compound 254] |  |  | + (Indicates inhibition greater than . . . 50%) | + (Indicates inhibition greater than . . . 50%) |  |
| CSC1OC(COCc2ccc(-c3ccccc3)cc2)C(O)C(OCc2ccc(-c3ccccc3)cc2)C1NC(=O)CN (stereo not drawn) [Compound 179] | + (Indicates inhibition greater than . . . 50%) | + (Indicates inhibition greater than . . . 50%) |  |  |  |
| CSC1O[C@H](COCc2cccc(N)c2)[C@@H](O)[C@H](OCc2ccc(Cl)cc2)[C@H]1NC(=O)Cc1c[nH]c2ccccc12 (stereo partly drawn) [Compound 341] | + (Indicates inhibition greater than . . . 50%) |  |  |  | + (Indicates inhibition greater than . . . 50%) |
| CSC1OC(COCc2ccc(-c3ccccc3)cc2)C(O)C(OCc2ccc(Cl)cc2)C1NC(=O)CCNC(=N)N (stereo not drawn) [Compound 158] | + (Indicates inhibition greater than . . . 50%) | + (Indicates inhibition greater than . . . 50%) |  |  |  |
| COCC1OC(OCCc2ccccc2)C(NC(=O)CNC(=N)N)C(OCc2ccc3ccccc3c2)C1O (stereo not drawn) [Compound 279] |  |  | + (Indicates inhibition greater than . . . 50%) | + (Indicates inhibition greater than . . . 50%) |  |
| CSC1OC(COCc2ccc3ccccc3c2)C(O)C(OCc2ccc(Cl)cc2)C1NC(=O)CCCNC(=N)N (stereo not drawn) [Compound 166] | + (Indicates inhibition greater than . . . 50%) | + (Indicates inhibition greater than . . . 50%) |  |  |  |
| COCC1OC(OCCc2ccccc2)C(NC(=O)CCNC(=N)N)C(OCc2ccccc2)C1O (stereo not drawn) [Compound 263] |  |  | + (Indicates inhibition greater than . . . 50%) | + (Indicates inhibition greater than . . . 50%) |  |
| COC[C@H]1OC(OCc2ccc3ccccc3c2)[C@H](NC(=O)CCNC(=N)N)[C@@H](OCc2ccc3ccccc3c2)[C@@H]1O (stereo partly drawn) [Compound 38] | + (Indicates inhibition greater than . . . 50%) | + (Indicates inhibition greater than . . . 50%) |  |  |  |
| CSC1OC(COCc2ccc(Cl)cc2)C(O)C(OCc2ccc3ccccc3c2)C1NC(=O)CCCN (stereo not drawn) [Compound 201] | + (Indicates inhibition greater than . . . 50%) | + (Indicates inhibition greater than . . . 50%) |  |  |  |
| COCC1OC(OCc2ccc(Cl)cc2)C(NC(=O)CCN)C(OCc2ccc3ccccc3c2)C1O (stereo not drawn) [Compound 256] |  |  | + (Indicates inhibition greater than . . . 50%) | + (Indicates inhibition greater than . . . 50%) |  |
